Test results taken from patent US20110306639A1, “HYDROCARBYLIDENE NITROHYDROZINECARBOXIMIDAMIDES AND A METHOD FOR MAKING THE SAME, AS WELL AS THEIR USES AS AN INSECTICIDE” (priority 2008, published 2011).
Where two headings read alike, the source gives them in different places.

Key:
asparagus caterpillar = settings: in vivo
myzus persicae = settings: in vivo

Row | Compound | mortality(%) asparagus caterpillar (500 μg/mL) (asparagus caterpillar) | mortality(%) Helicoverpa armigera (500 μg/mL) (Helicoverpa armigera; in vivo) | mortality(%) myzus persicae (600 μg/mL) (myzus persicae) | mortality(%) Helicoverpa armigera (500 μg/mL) (Helicoverpa armigera; 500 μg/mL, 48 hours)
1 | COc1ccccc1C=NNC(=N[N+](=O)[O-])NCc1ccc(Cl)nc1 [Compound 109] | 90% | 40% |  | 
2 | CCCC=NNC(=N[N+](=O)[O-])NCc1ccc(Cl)nc1 [Compound 30] | 40% | 40% | 80.7% | 
3 | C=CCNC(=N[N+](=O)[O-])NN=Cc1ccccc1OC [Compound 76] | 80% |  | 3.4% | 40%
4 | CC=CC=NNC(=N[N+](=O)[O-])NCC [Compound 32] | 0% |  | 48.0% | 0%
5 | C=CCNC(=N[N+](=O)[O-])NN=Cc1ccc(N(C)C)cc1 [Compound 72] | 50% | 50% | 23.6% | 
6 | CCCNC(=N[N+](=O)[O-])NN=CC=C(C)CCC=C(C)C [Compound 18] | 60% | 50% |  | 
7 | CCCCCCC=NNC(=N[N+](=O)[O-])NCCCC [Compound 46] | 30% |  |  | 20%
8 | CCCCNC(=N[N+](=O)[O-])NN=CC(C)C [Compound 4] | 20% |  | 31.6% | 10%
9 | C=CCNC(=N[N+](=O)[O-])NN=CCC [Compound 12] | 40% |  |  | 30%
10 | CCCNC(=N[N+](=O)[O-])NN=CC(C)C [Compound 3] | 20% |  | 14.4% | 30%
11 | CCCCC=NNC(=N[N+](=O)[O-])NCc1ccccc1 [Compound 55] | 30% |  | 49.2% | 10%
12 | CCC=NNC(=N[N+](=O)[O-])NCCCC [Compound 11] | 50% |  | 1.5% | 50%
13 | C#CCNC(=N[N+](=O)[O-])NN=Cc1ccc(F)cc1 [Compound 102] | 50% | 50% | 31.6% | 
14 | CCCNC(=N[N+](=O)[O-])NN=Cc1ccc(OCC)c(OC)c1 [Compound 96] | 50% | 20% | 73.4% | 
15 | CNC(=N[N+](=O)[O-])NN=CC(C)C [Compound 1, 2-isobutylidene-N-methyl-N′-nitrohydrozinecarboximidamide] | 40% |  | 4.7% | 40%
16 | C=CCNC(=N[N+](=O)[O-])NN=CC=CC [Compound 35] | 60% |  | 56.7% | 20%
17 | CC(C)C=NNC(=N[N+](=O)[O-])NCc1ccc(Cl)nc1 [Compound 8] | 40% | 60% | 87.0% | 
18 | CCNC(=N[N+](=O)[O-])NN=CC=C(C)CCC=C(C)C [Compound 17] | 40% | 40% | 19.8% | 
19 | CCCC=NNC(=N[N+](=O)[O-])NCCC [Compound 25] | 10% |  |  | 50%

Row | Compound | mortality(%) asparagus caterpillar (500 μg/mL) (asparagus caterpillar) | mortality(%) Helicoverpa armigera (500 μg/mL) (Helicoverpa armigera; in vivo) | mortality(%) myzus persicae (600 μg/mL) (myzus persicae) | mortality(%) Helicoverpa armigera (500 μg/mL) (Helicoverpa armigera; 500 μg/mL, 48 hours)
20 | C#CCNC(=N[N+](=O)[O-])NN=CC(C)C [Compound 6] | 60% |  | 37.9% | 100%
21 | CC=CC=NNC(=N[N+](=O)[O-])NCCCC [Compound 34] | 60% |  |  | 40%
22 | CCCCNC(=N[N+](=O)[O-])NN=Cc1ccc(OCC)c(OC)c1 [Compound 97] | 70% | 40% | 35.8% | 
23 | C#CCNC(=N[N+](=O)[O-])NN=Cc1ccccc1OC [Compound 77] | 50% |  | 4.2% | 30%
24 | CCNC(=N[N+](=O)[O-])NN=Cc1ccc(N(C)C)cc1 [Compound 69] | 80% | 30% | 90.6% | 
25 | C#CCNC(=N[N+](=O)[O-])NN=Cc1ccccc1Cl [Compound 94] | 60% | 50% | 31.2% | 
26 | COc1ccccc1C=NNC(=N[N+](=O)[O-])NCc1ccccc1 [Compound 75] | 90% |  | 92.8% | 30%
27 | CCCCNC(=N[N+](=O)[O-])NN=CC=C(C)CCC=C(C)C [Compound 19] | 60% | 40% | 67.5% | 
28 | CC(C)=CCCC(C)=CC=NNC(=N[N+](=O)[O-])NCc1ccc(Cl)nc1 [Compound 23] | 40% | 30% | 19.8% | 
29 | C=CCNC(=N[N+](=O)[O-])NN=CCCCC [Compound 53] | 80% |  | 81.0% | 40%
30 | CCCCCCC=NNC(=N[N+](=O)[O-])NCc1ccccc1 [Compound 49] | 0% |  | 28.6% | 50%
31 | CCCCNC(=N[N+](=O)[O-])NN=Cc1ccccc1Cl [Compound 91] | 80% | 0% | 1.2% | 
32 | CCCC=NNC(=N[N+](=O)[O-])NCc1ccccc1 [Compound 29] | 50% |  |  | 60%
33 | CC=CC=NNC(=N[N+](=O)[O-])NCc1ccccc1 [Compound 37] | 20% |  |  | 70%
34 | C=CC=NNC(=N[N+](=O)[O-])NCC [Compound 39] | 40% |  |  | 20%
35 | CN(C)c1ccc(C=NNC(=N[N+](=O)[O-])NCc2ccccc2)cc1 [Compound 71] | 90% | 30% |  | 
36 | O=[N+]([O-])N=C(NCc1ccc(Cl)nc1)NN=Cc1ccc(Cl)cc1 [Compound 108] | 50% | 50% |  | 
37 | CCCNC(=N[N+](=O)[O-])NN=Cc1ccc(N(C)C)cc1 [Compound 70] | 80% | 40% |  | 
38 | C#CCNC(=N[N+](=O)[O-])NN=CC=C [Compound 43] | 20% |  |  | 40%
